The results in this text go back to US20060281736A1, “Product comprising at least one phosphatase cdc25 inhibitor combined with at least one other anticancer agent” (priority 2003, published 2006).

Some results are limits rather than exact numbers.

Series [1] has as its system Mia-PaCa2 (human pancreas cancer cells). The series is described as follows: Antiproliferative activity on Mia-Paca2 cells (WST1). Type of series: cell-based. The note with it: MIA PaCa-2, 96 hours treatment, read-out: IC50 on the cell proliferation of Mia-Paca2 lines. As for the experimental part:
(§1) ii) Characterization of the Antiproliferative Activity:
(§2) By way of example, the effect of a treatment on two human cell lines Mia-Paca2 and DU145 with the compounds of the examples described previously will be studied. The cell lines DU145 (human prostate cancer cells) and Mia-PaCa2 (human pancreas cancer cells) were acquired from the American Tissue Culture Collection (Rockville, Md., USA). The cells placed in 80 μl of Dulbecco's Modified Eagle's medium (Gibco-Brl, Cergy-Pontoise, France) completed with 10% foetal calf serum inactivated by heating (Gibco-Brl, Cergy-Pontoise, France), 50,000 units/l of penicillin and 50 mg/l of streptomycin (Gibco-Brl, Cergy-Pontoise, France), and 2 mM of glutamine (Gibco-Brl, Cergy-Pontoise, France) were seeded on a 96-well plate on day 0. The cells were treated on day 1 for 96 hours with increasing concentrations of each of the compounds to be tested up to 10 μM. At the end of this period, quantification of cell proliferation is evaluated by a colorimetric test based on the cleavage of the tetrazolium salt WST1 by the mitochondrial dehydrogenases in viable cells leading to the formation of formazan (Boehringer Mannheim, Meylan, France). These tests are carried out in duplicate with 8 determinations per concentration tested. For each compound to be tested, the values included in the linear part of the sigmoid were retained for a linear regression analysis and used to estimate the inhibitory concentration IC50. The products are solubilized in dimethylsulphoxide (DMSO) at 10^−2 M and finally used in culture with 0.1% DMSO.
For orientation: Tetrazolium dyes change colour on reduction, which living cells bring about.

The test system of series [2] is DU145 (human prostate cancer cells). The series is described as follows: Antiproliferative activity on DU145 cells (WST1). The series is classed as cell-based. The note with it: DU-145, 96 hours treatment, read-out: IC50 on the cell proliferation of DU-145 lines. As for the experimental part:
as §1
as §2, with “For each compound to be tested, the values included in the linear part of the sigmoid were retained for a linear regression analysis and used to estimate the inhibitory concentration IC50. The products are solubilized in dimethylsulphoxide (DMSO) at 10^−2 M and finally used in culture with 0.1% DMSO.” left out

Series [3] in a line: Stability in the form of a powder. The series is classed as physicochemical. The note with it: compound and its salts.
Series [4] deals with HT-29 cell line (human colon cancer cells). Kind of series: Test of cell proliferation of the HT-29 cells (WST1), products individually or in combination. The series is classed as cell-based. The note with it: 120 hours. As for the experimental part: A) Test of Cell Proliferation of the HT-29 Cells
The protocol for the test used to obtain the results shown is described below:
The HT-29 cell line (human colon cancer cells) were acquired from the American Tissue Culture Collection (Rockville, Md., USA).
The HT-29 cells (2000 cells/well) are cultured in 96-well plates. On day 0, these cells are seeded in 90 μl of Dulbecco's modified Eagle medium (Gibco-Brl, Cergy-Pontoise, France) completed with 10% foetal calf serum inactived by heating (Gibco-Brl, Cergy-Pontoise, France), 50000 units/l of penicillin and 50 mg/l streptomycin (Gibco-Brl, Cergy-Pontoise, France), and 2 mM of glutamine (Gibco-Brl, Cergy-Pontoise, France).
The cells were treated simultaneously with concentrations of two products individually or in combination on Day 1 and for 120 hours.
At the end of the of this period (D6), quantification of cell proliferation is evaluated by a colorimetric test based on the cleavage of the tetrazolium salt WST1 by mitochondrial dehydrogenases in living cells leading to the formation of formazan (Boehringer Mannheim, Meylan, France). These tests are carried out at least in duplicate with 4 determinations for each individual product and for each combination tested. This allows determination of the number of living cells at the end of each treatment.

For `CCCNC1=CC(=O)c2sc(C)nc2C1=O` [Example 11, 2-methyl-5-(propylamino)-1,3-benzothiazole-4,7-dione], the IC50 in series [1] and in series [2] was not above 10 µM throughout.

For `N[C@@H](CSSC[C@H](N)C(=O)N1CCn2cc(-c3ccccc3)nc2[C@@H]1CC1CCCCC1)C(=O)N1CCn2cc(-c3ccccc3)nc2[C@@H]1CC1CCCCC1` [(1R)-1-[({(2R)-2-amino-3-[(8S)-8-(cyclohexylmethyl)-2-phenyl-5,6-dihydroimidazo[1,2-a]pyrazin-7(8H)-yl]-3-oxopropyl}dithio)methyl]-2-[(8)-8-(cyclohexylmethyl)-2-phenyl-5,6-dihydroimidazo[1,2-a]pyrazin-7(8H)-yl]-2-oxoethylamine], the “stability in the form of a powder” value in series [3] was “particularly stable”. In addition, in “In vivo toxicity”, the “in vivo toxicity data” value was “excellent”.

In general, melting point refers to the temperature, or range, at which the solid turns liquid. As to `CCc1nc2c(o1)C(=O)C(C)=C(NCCN(C)C)C2=O` [Example 55, 5-{[2-(dimethylamino)ethyl]amino}-2-ethyl-6-methyl-1,3-benzoxazole-4,7-dione], the melting point amounted to 135 °C. Besides, in series [1], the IC50 was not above 10 µM.

As to `CC[C@@]1(O)CC(=O)OCc2c1cc1n(c2=O)Cc2c-1nc1cc(Cl)c(C)cc1c2CN1CCC(C)CC1.Cl` [Compound B13, (+)-9-chloro-5-ethyl-5-hydroxy-10-methyl-12-(4-methylpiperidinomethyl)-4,5,13,15-tetrahydro-1H,3H-oxepino[3′,4′:6,7]indolizino[1,2-c]quinoline-3,15-dione hydrochloride], the “% of surviving cells” value in series [4] (Combination 13: Compound B13 (10^−9 M) individually) is on record as 91%.

Consider `N.N.[Cl][Pt][Cl]` [Compound B4, cisplatin], for which the “% of surviving cells” value in series [4] (Combination 4: Compound B4 (10^−5 M) individually) is on record as 33%; in series [4] (Combination 28: Compound B4 (10^−5 M) individually), 75%; in series [4] (Combination 35: Compound B4 (10^−5 M) individually) it was 85%.

In the case of `CO[C@@]12[C@H](COC(N)=O)C3=C(C(=O)C(C)=C(N)C3=O)N1C[C@@H]1N[C@@H]12` [Compound B2, mitomycin C], the “% of surviving cells” value stood at 49% in series [4] (Combination 2: Compound B2 (10^−7 M) individually), 82% in series [4] (Combination 25: Compound B2 (5 × 10^−8 M) individually), 88% in series [4] (Combination 32: Compound B2 (5 × 10^−8 M) individually) and 88% in series [4] (Combination 33: Compound B2 (5 × 10^−8 M) individually).
